Format in all cases: cell-based
For one test, the system named is E. coli W3110PA. Put plainly: microbe, parasite or virus in culture. As to conditions: for MIC: Escherichia coli, W3110PA, 22 h, read-out: MIC E. coli W3110PA; for MIC E. coli W3110PA: E. coli with lpxC of P. aeruginosa, 22 hours at 37° C., MTT.
Another test deals with P. aeruginosa (PAO1). Briefly: MIC, P. aeruginosa. The settings on record: for MIC: Pseudomonas aeruginosa, PAO1, 22 h, read-out: MIC P. aeruginosa (PAO1); for MIC P. aeruginosa (PAO1): 22 hours at 37° C., MTT.
In the next test the test system is E. coli W3110RL. Put plainly: microbe, parasite or virus in culture. The settings on record: for MIC: Escherichia coli, W3110RL, 22 h, read-out: MIC E. coli W3110RL; for MIC E. coli W3110RL: E. coli with lpxC of R. leguminosarum, 22 hours at 37° C., MTT.
For another test, the system named is E. coli W3110. Briefly: microbe, parasite or virus in culture. As to conditions: for MIC: Escherichia coli, W3110, 22 h, read-out: MIC E. coli W3110.

Values after ≈ are worked out from the molar mass of the structure shown.

Consider `C[C@@](O)(CF)[C@H](NC(=O)c1ccc(C#CC#Cc2ccc(N)cc2)cc1)C(=O)NO` [CPD-061, 4-((4-aminophenyl)buta-1,3-diynyl)-N-((2S,3S)-4-fluoro-3-hydroxy-1-(hydroxyamino)-3-methyl-1-oxobutan-2-yl)benzamide], for which the MIC in the test on E. coli W3110PA was 1 to 10 µg/mL (≈ 2.44 to 24.4 µM); in the test with P. aeruginosa (PAO1), 1 to 10 µg/mL (≈ 2.44 to 24.4 µM); in the test on E. coli W3110RL it was 51 to 100 µg/mL (≈ 125 to 244 µM); with E. coli W3110 it was below 1 µg/mL.
For the compound `CC(C)[C@H](NC(=O)c1ccc(C#CC#Cc2ccc(N)cc2)cc1)C(=O)NO` [CPD-022, (2S)-2-({4′-[4′-(4′-aminophenyl)buta-1′,3′-diyn-1′-yl]phenyl}formamido)-N-hydroxy-3-methylbutanamide], in the test with E. coli W3110PA, the “MIC E. coli W3110PA” value was “A (<1 μg/mL)”. Besides, the “MIC P. aeruginosa (PAO1)” value in the test with P. aeruginosa (PAO1) is on record as “B (1-10 μg/mL)”. Moreover, the “MIC E. coli W3110RL” value in the test on E. coli W3110RL is “D (51-100 μg/mL)”. Further, in the test with E. coli W3110, the “MIC E. coli W3110” value is reported as “A (key: A: <1 μg/mL; B: 1-10 μg/mL; C: 11-50 μg/mL; D: 51-100 μg/mL; E: >100 μg/mL)”.
With `Nc1ccc(C#CC#Cc2ccc(C(=O)N[C@H](C(=O)NO)[C@@H](O)c3ccc(O)cc3)cc2)cc1` [CPD-050, 4-((4-aminophenyl)buta-1,3-diynyl)-N-((1S,2S)-1-hydroxy-3-(hydroxyamino)-1-(4-hydroxyphenyl)-3-oxopropan-2-yl)benzamide], the MIC was below 1 µg/mL in the test on E. coli W3110PA, 1 to 10 µg/mL (≈ 2.2 to 22 µM) with P. aeruginosa (PAO1), 11 to 50 µg/mL (≈ 24.2 to 110 µM) in the test on E. coli W3110RL and below 1 µg/mL with E. coli W3110.
Consider `C[C@@H](O)[C@H](NC(=O)c1ccc(C#CC#Cc2cnc(N)nc2)cc1)C(=O)NO` [CPD-036, (2S,3R)-2-{4′-[[(2″-amino)pyrimidin-5″-yl]buta-1′,3′-diynyl]benzamido}-1,3-dihydroxybutanamide], for which the “MIC E. coli W3110PA” value against E. coli W3110PA was “B (1-10 μg/mL)”. The “MIC P. aeruginosa (PAO1)” value in the test on P. aeruginosa (PAO1) is on record as “A (<1 μg/mL)”. The “MIC E. coli W3110RL” value with E. coli W3110RL is reported as “E (>100 μg/mL)”. Also, in the test on E. coli W3110, the “MIC E. coli W3110” value was “B (key: A: <1 μg/mL; B: 1-10 μg/mL; C: 11-50 μg/mL; D: 51-100 μg/mL; E: >100 μg/mL)”.
Taken in the same sequence, the figures for `Nc1ccc(C#CC#Cc2ccc(C(=O)N[C@@H](Cc3ccc(O)cc3)C(=O)NO)cc2)cc1` [CPD-033, (2S)-2-({4′-[4′-(4′-aminophenyl)buta-1′,3′-diyn-1′-yl]phenyl}formamido)-N-hydroxy-3′-(4′-hydroxyphenyl)propanamide] were “B (1-10 μg/mL)”, “C (11-50 μg/mL)”, “E (>100 μg/mL)” and “B (key: A: <1 μg/mL; B: 1-10 μg/mL; C: 11-50 μg/mL; D: 51-100 μg/mL; E: >100 μg/mL)”.
In the case of `C[C@H](O)[C@@H](NC(=O)c1ccc(C#CC#Cc2ccc(N)cc2)cc1)C(=O)NO` [CPD-055, (2R,3S)-2-{4′-[(4″-aminophenyl)buta-1′,3′-diynyl]benzamido}-1,3-dihydroxybutanamide], the MIC with E. coli W3110PA was 11 to 50 µg/mL (≈ 29.1 to 132 µM); in the test on P. aeruginosa (PAO1), 11 to 50 µg/mL (≈ 29.1 to 132 µM); in the test with E. coli W3110RL, 51 to 100 µg/mL (≈ 135 to 265 µM); in the test with E. coli W3110, 1 to 10 µg/mL (≈ 2.65 to 26.5 µM).
Regarding `Nc1ccc(C#CC#Cc2ccc(C(=O)N[C@H](C(=O)NO)[C@H](O)C(F)F)cc2)cc1` [CPD-056, 4-((4-aminophenyl)buta-1,3-diynyl)-N-((2S,3S)-4,4-difluoro-3-hydroxy-1-(hydroxyamino)-1-oxobutan-2-yl)benzamide], the MIC with E. coli W3110PA was below 1 µg/mL; in the test with P. aeruginosa (PAO1), below 1 µg/mL; in the test with E. coli W3110RL, 1 to 10 µg/mL (≈ 2.42 to 24.2 µM); in the test on E. coli W3110 it was below 1 µg/mL.
As to `C[C@@H](O)[C@@H](NC(=O)c1ccc(C#CC#Cc2ccc(N)cc2)cc1)C(=O)NO` [CPD-054, (2R,3R)-2-{4′-[(4″-aminophenyl)buta-1′,3′-diynyl]benzamido}-1,3-dihydroxybutanamide], the MIC in the test with E. coli W3110PA was 11 to 50 µg/mL (≈ 29.1 to 132 µM); in the test with P. aeruginosa (PAO1), 11 to 50 µg/mL (≈ 29.1 to 132 µM); with E. coli W3110RL, 51 to 100 µg/mL (≈ 135 to 265 µM); with E. coli W3110, 1 to 10 µg/mL (≈ 2.65 to 26.5 µM).
